Data published in US20060122153A1, “Antineoplastic ether lipid compounds with modifications at the sn-2 carbon” (priority 2003, published 2006).

Columns and labels:
Format in all cases: cell-based, human
Design in all cases: key: = means equivalent activity; + means that it appears to be significantly better (i.e., by ˜2x); < means it appears to be less active than ET18OCH3 (˜2x); a combination like =/+ or </+ means that activity is dependent upon the isomer; a combination like =/+ or </+ means that activity is dependent upon the isomer
SF-539 = assay: NCI growth inhibition screen, CNS panel; conditions: SF-539, CNS; from GI50s
Procedure: (§1) Candidates deemed suitable for in vivo testing were then synthesized in large scale quantities and some of this material was sent to the NCI's Developmental Therapeutics Program for a battery of growth inhibitory studies against various human tumor cell lines (60 cell lines, 9 different panels). The remainder of the material was used to assess in vivo efficacy using murine tumor models. Additionally, studies were conducted on the lead candidates to discern mechanism of action with particular emphasis on these agents apoptotic ability as measured by caspase 3 activity. The details (materials and methods) for these various assays are described further in the following discussion.
(§2) Ten compounds were also sent to NCI's Drug Discovery Program for screening against numerous human tumor cell lines (9 panels total: renal ovarian, colon, CNS, non-small cell lung, leukemia, breast, melanoma, and prostate). The data are shown in FIGS. 2a-i which also include data regarding D- and L-ET-18-OCH3 (listed as L-EL and D-EL in the figures). Upon examining the data, one is struck by how 1R and 1a′S standout in comparison to the other compounds, especially for the renal, ovarian, colon, and CNS panels.

U-251 = assay: NCI growth inhibition screen, CNS panel; conditions: U-251, CNS; from GI50s
Procedure: as §1, §2

SF-295 = assay: NCI growth inhibition screen, CNS panel; conditions: SF-295, CNS; from GI50s
Procedure: as §1, §2

SNB-19 = assay: NCI growth inhibition screen, CNS panel; conditions: SNB-19, CNS; from GI50s
Procedure: as §1, §2

COLO 205 = assay: NCI growth inhibition screen, colon panel; conditions: COLO 205, Colon; from GI50s
Procedure: as §1, §2

HCC-2998 = assay: NCI growth inhibition screen, colon panel; conditions: HCC-2998, Colon; from GI50s
Procedure: as §1, §2

LOX IMVI = assay: NCI growth inhibition screen, melanoma panel; conditions: from GI50s
Procedure: as §1, §2

M14 = assay: NCI growth inhibition screen, melanoma panel; conditions: from GI50s
Procedure: as §1, §2

SK-MEL-28 = assay: NCI growth inhibition screen, melanoma panel; conditions: SK-MEL-28, Melanoma; from GI50s
Procedure: as §1, §2

SK-MEL-5 = assay: NCI growth inhibition screen, melanoma panel; conditions: SK-MEL-5, Melanoma; from GI50s
Procedure: as §1, §2

UACC-257 = assay: NCI growth inhibition screen, melanoma panel; conditions: UACC-257, Melanoma; from GI50s
Procedure: as §1, §2

UACC62 = assay: NCI growth inhibition screen, melanoma panel; conditions: from GI50s
Procedure: as §1, §2

Structure (SMILES) | Performance as compared to ET-18-O—CH3 (SF-539) | Performance as compared to ET-18-O—CH3 (U-251) | Performance as compared to ET-18-O—CH3 (SF-295) | Performance as compared to ET-18-O—CH3 (SNB-19) | Performance as compared to ET-18-O—CH3 (COLO 205) | Performance as compared to ET-18-O—CH3 (HCC-2998) | Performance as compared to ET-18-O—CH3 (LOX IMVI) | Performance as compared to ET-18-O—CH3 (M14) | Performance as compared to ET-18-O—CH3 (SK-MEL-28) | Performance as compared to ET-18-O—CH3 (SK-MEL-5) | Performance as compared to ET-18-O—CH3 (UACC-257) | Performance as compared to ET-18-O—CH3 (UACC62)
CCCCCCCCCCCCCCCCCCOC[C@@H](COP(=O)([O-])OCC[N+](C)(C)C)OS(C)(=O)=O [1a′S] | 8192 | =/+ | 0 | 0 | 0 | 128 | 0 | 0 | </= | 0 | 0 | 64
CCCCCCCCCCCCCCCCCCOCC(COP(=O)([O-])OCC[N+](C)(C)C)OS(C)(=O)=O (stereo not drawn) [Compound 1aR] | + | + | = | = | = | + | = | = | =/+ | = | = | +
